Measurements published in US20050282873A1, “Epothilone derivative for the treatment of hepatoma and other cancer diseases” (priority 2002, published 2005).

Tests used:
Assay type in all cases: in vivo, human
advanced renal cancer = assay: Open-label, single-arm, two-stage multicenter efficacy study in patients with advanced renal cancer; conditions: i.v. 2.5 mg/m2, 5 minute bolus infusion weekly for three weeks, one week off, trial ongoing
Protocol: An open-label, single-arm, two-stage multicenter study investigating the efficacy of 7,11-Dihydroxy-8,8,10,12,16-pentamethyl-3-[1-methyl-2-(2-methyl-thiazol-4-yl)-viny]-4,17-dioxa-bicyclo[14.1.0]heptadecane-5,9-dione administered intravenously at 2.5 mg/m2 as a 5 minute bolus infusion repeated every week for three weeks followed by one week off in patients with advanced renal cancer. 7,11-Dihydroxy-8,8,10,12,16-pentamethyl-3-[1-methyl-2-(2-methyl-thiazol-4-yl)-vinyl]-4,17-dioxa-bicyclo[14.1.0]heptadecane-5,9-dione is administered once every week for three weeks followed by a one-week drug holiday until either progression of disease or unacceptable toxicities occurs. Each four-week period is considered one cycle. Patients are evaluated for tumor response one week after their last dose of every other cycle, starting with Cycle 2. Patients may, at any time, have their dose reduced to 2.0 mg/m2 if in the investigators opinion the original dose is either intolerable or unsafe for any given patient, and without such a dose reduction the patient would be forced to withdraw from the study. All dose modifications are captured on the dose administration record CRF. The study period for efficacy evaluation is up to six cycles. The study will enroll patients with histologically confirmed transitional cell carcinoma of the kidney. […]

[1] = system: advanced colorectal cancer; assay: Open-label, single-arm, two-stage multicenter efficacy study in advanced colorectal cancer, weekly regimen; conditions: i.v. 2.5 mg/m2, 5 minute bolus infusion weekly for three weeks, one week off; colorectal cancer patients who failed fluoropyrimidine and Irinotecan or oxaliplatin; trial ongoing
Protocol: An open-label, single-arm, two-stage multicenter study to investigate the efficacy of 7,11-Dihydroxy-8,8,10,12,16-pentamethyl-3-[1-methyl-2-(2-methyl-thiazol-4-yl)vinyl]-4,17-dioxa-bicyclo[14.1.0]heptadecane-5,9-dione administered intravenously at 2.5 mg/m2 as a 5 minute bolus infusion repeated every week for three weeks followed by one week off in patients with advanced colorectal cancer. 7,11-Dihydroxy-8,8,10,12,16-pentamethyl-3-[1-methyl-2-(2-methyl-thiazol-4-yl)-vinyl-]-4,17-dioxa-bicyclo[14.1.0]heptadecane-5,9-dione is administered once every week for three weeks followed by a one-week drug holiday until either progression of disease or unacceptable toxicities occurs. Each four-week period is considered one cycle. Patients are evaluated for tumor response one week after their last dose of every other cycle, starting with Cycle 2. Patients may, at any time, have their dose reduced to 2.0 mg/m^2 if in the investigator's opinion the original dose is either intolerable or unsafe for any given patient, and without such a dose reduction the patient will be forced to withdraw from the study. All dose modifications are captured on the dose administration record CRF. The study period for efficacy evaluation is up to six cycles. […]

[2] = system: ovarian, primary Fallopian, or primary peritoneal cancer; assay: Open-label, single-arm, two-stage, multi-center efficacy study in ovarian, primary Fallopian or primary peritoneal cancer patients; conditions: i.v. 2.5 mg/m2, 5 minute bolus infusion weekly for three weeks, one week off; patients failed or relapsed within six months of first-line taxane/platinum therapy; study ongoing
Protocol: An open-label, single-arm, two-stage, multi-center study investigating the efficacy of 7,11-Dihydroxy-8,8,10,12,16-pentamethyl-3-[1-methyl-2-(2-methyl-thiazol-4-yl)-vinyl]-4,17-dioxa-bicyclo[14.1.0]heptadecane-5,9-dione administered intravenously at 2.5 mg/m2 as a 5 minute bolus infusion repeated every week for three weeks followed by one week off in patients who have ovarian, primary Fallopian, or primary peritoneal cancer. […] Chemotherapies other than taxane/platinum or an additional agent to this regimen will not be allowed. […] A third therapeutic agent administered as part of the taxane/platinum therapy is permitted for refractory disease if all other criteria are met.

[3] = system: androgen-independent prostate cancer; assay: Open-label, single-arm, two-stage multicenter efficacy study in androgen-independent prostate cancer; conditions: i.v. 2.5 mg/m^2, 5 minute bolus infusion weekly for three weeks, one week off; chemo-naïve or failed one prior chemotherapy; trial ongoing
Protocol: Open-label, single-arm, two-stage, multicenter study to investigate the efficacy of EPO906 administered intravenously at 2.5 mg/m^2 as a 5 minute bolus infusion once a week for three weeks followed by one week off in patients with androgen-independent prostate cancer who are chemo-naïve or who have failed one prior chemotherapy. 7,11-Dihydroxy-8,8,10,12,16-pentamethyl-3-[1-methyl-2-(2-methyl-thiazol-4-yl)-vinyl]-4,17-dioxa-bicyclo[14.1.0]heptadecane-5,9-dione is administered once every week for three weeks followed by a one-week drug holiday until either progression of disease or unacceptable toxicities occurs. Each four-week period is considered one cycle. Patients are evaluated for tumor response one week after their last dose of every other cycle, starting with Cycle 2. Patients may, at any time, have their dose reduced to 2.0 mg/m^2 if in the investigator's opinion the original dose is either intolerable or unsafe for any given patient, and without such a dose reduction the patient will be forced to withdraw from the study. All dose modifications are captured on the dose administration record CRF. The study period for efficacy evaluation is up to six cycles.
Patients taking PC-SPES must discontinue therapy for a minimum of 4 weeks. […]

[4] = system: advanced colorectal cancer; assay: Open-label, single-arm, two-stage multicenter efficacy study in advanced colorectal cancer, once every three weeks; conditions: i.v. 6.0 mg/m^2, 5 minute bolus infusion once every three weeks; colorectal cancer patients who failed fluoropyrimidine and Irinotecan or oxaliplatin; trial ongoing
Protocol: An open-label, single-arm, two-stage, multicenter study to investigate the efficacy of 7,11-Dihydroxy-8,8,10,12,16-pentamethyl-3-[1-methyl-2-(2-methyl-thiazol-4-yl)-vinyl]4,17-dioxa-bicyclo[14.1.0]heptadecane-5,9-dione administered intravenously at 6.0 mg/m^2 as a 5 minute bolus infusion repeated once every three weeks in patients with advanced colorectal cancer. 7,11-Dihydroxy-8,8,10,12,16-pentamethyl-3-[1-methyl-2-(2-methyl-thiazol-4-yl)vinyl]4,17-dioxa-bicyclo[14.1.0]heptadecane-5,9-dione is administered once every three weeks until either progression of disease or unacceptable toxicities occurs. Each three-week period is considered one cycle. Patients are evaluated for tumor response one week after the last dose of every third cycle, starting with Cycle 3. Patients may, at any time, have their dose reduced to 5.4 mg/m^2 or 4.8 mg/m^2 if in the investigator's opinion the original dose is either intolerable or unsafe for any given patient, and without such a dose reduction the patient will be forced to withdraw from the study. All dose modifications are captured on the Dose Administration Record CRF.
The study period for efficacy evaluation is up to nine cycles. […]

CC(=Cc1csc(C)n1)C1CC2OC2(C)CCCC(C)C(O)C(C)C(=O)C(C)(C)C(O)CC(=O)O1 (centres unmarked) [7,11-Dihydroxy-8,8,10,12,16-pentamethyl-3-[1-methyl-2-(2-methyl-thiazol-4-yl)-vinyl]-4,17-dioxa-bicyclo[14.1.0]heptadecane-5,9-dione]
response of patients in the study (advanced renal cancer): Several patients show a positive response | response of patients in the trial [1]: Several patients shown a positive response | response of patients in the study [2]: Several patients show a positive response | response of patients in the trial [3]: Several patients show a positive response | response of patients in the trial [4]: Several patients shown a positive response
